Test results: ChEMBL document CHEMBL1201862, “PubChem BioAssay data set” (2004)
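Results reflect a 48-hour exposure of cells in 96-well plates to compound at five concentrations. GI50 marks 50% less growth.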 Calls of active or inactive are those of the source. No stated cut-off is given here; in the data, active = GI50 up to about 1.1 µM and inactive = higher.

How the values were obtained:
Test in all cases: DTP human tumour cell line panel, 48 h
CAKI-1 = system: CAKI-1
RXF 393 = system: RXF 393
Malme-3M = system: Malme-3M
HCT-116 = system: HCT-116
SK-MEL-2 = system: SK-MEL-2
EKVX = system: EKVX
HT-29 = system: HT-29
SF-539 = system: SF-539
MDA-MB-435 = system: MDA-MB-435
SK-MEL-5 = system: SK-MEL-5
Hs-578T = system: Hs-578T
NCI/ADR-RES = system: NCI/ADR-RES
TK-10 = system: TK-10
IGROV-1 = system: IGROV-1
UACC-257 = system: UACC-257
OVCAR-3 = system: OVCAR-3
U-251 = system: U-251
OVCAR-5 = system: OVCAR-5
SR = system: SR
BT-549 = system: BT-549

Row | SMILES | GI50 (CAKI-1) | GI50 (RXF 393) | GI50 (Malme-3M) | GI50 (HCT-116) | GI50 (SK-MEL-2) | GI50 (EKVX) | GI50 (HT-29) | GI50 (SF-539) | GI50 (MDA-MB-435) | GI50 (SK-MEL-5) | GI50 (Hs-578T) | GI50 (NCI/ADR-RES) | GI50 (TK-10) | GI50 (IGROV-1) | GI50 (UACC-257) | GI50 (OVCAR-3) | GI50 (U-251) | GI50 (OVCAR-5) | GI50 (SR) | GI50 (BT-549)
1 | Cc1c(C(=O)O)sc2nc[nH]c(=O)c12 | 50.2 µM (inactive) | > 100 µM (inactive) | > 100 µM (inactive) | > 100 µM (inactive) | > 100 µM (inactive) | 53.8 µM (inactive) | > 100 µM (inactive) | > 100 µM (inactive) | > 100 µM (inactive) | > 100 µM (inactive) | 22.6 µM (inactive) | > 100 µM (inactive) | > 100 µM (inactive) | 84.1 µM (inactive) | > 100 µM (inactive) | > 100 µM (inactive) | > 100 µM (inactive) | > 100 µM (inactive) | – | –
2 | O=C1CSC(c2cccc(Cl)c2)N1c1c(O)c(Cl)cc(Br)c1Cl (configuration not stated) | > 100 µM (inactive) | 16.7 µM (inactive) | > 100 µM (inactive) | 15.1 µM (inactive) | 14.9 µM (inactive) | > 100 µM (inactive) | > 100 µM (inactive) | 28.8 µM (inactive) | 17.1 µM (inactive) | 27.3 µM (inactive) | 29.8 µM (inactive) | 71 µM (inactive) | 83.4 µM (inactive) | – | 22.4 µM (inactive) | 16.9 µM (inactive) | 25.5 µM (inactive) | > 100 µM (inactive) | 24.8 µM (inactive) | –
3 | OC(CC(O)(C(F)(F)F)C(F)(F)F)c1ccc(C(O)CC(O)(C(F)(F)F)C(F)(F)F)cc1 (configuration not stated) | 12.7 µM (inactive) | 15 µM (inactive) | 14.2 µM (inactive) | 11.8 µM (inactive) | 22.3 µM (inactive) | 14.7 µM (inactive) | 12.3 µM (inactive) | 15.7 µM (inactive) | 18.2 µM (inactive) | 13.9 µM (inactive) | 22 µM (inactive) | 14.6 µM (inactive) | – | 10.9 µM (inactive) | 18.1 µM (inactive) | 6.38 µM (inactive) | 16.4 µM (inactive) | 17.1 µM (inactive) | 17.1 µM (inactive) | –
4 | CC[C@]1(O)C(=O)OCc2c1cc1n(c2=O)Cc2cc3c(N)cccc3nc2-1 | > 100 µM (inactive) | > 100 µM (inactive) | > 100 µM (inactive) | > 100 µM (inactive) | > 100 µM (inactive) | > 100 µM (inactive) | > 100 µM (inactive) | > 100 µM (inactive) | – | > 100 µM (inactive) | – | – | > 100 µM (inactive) | > 100 µM (inactive) | > 100 µM (inactive) | > 100 µM (inactive) | > 100 µM (inactive) | > 100 µM (inactive) | > 100 µM (inactive) | –
5 | O=S(=O)(c1ccc(-c2nnc(-c3ccc(F)cc3)o2)cc1)c1ccc(-c2nnc(-c3ccc(F)cc3)o2)cc1 | > 100 µM (inactive) | 22.2 µM (inactive) | > 100 µM (inactive) | > 100 µM (inactive) | > 100 µM (inactive) | > 100 µM (inactive) | > 100 µM (inactive) | 50.4 µM (inactive) | > 100 µM (inactive) | > 100 µM (inactive) | – | > 100 µM (inactive) | – | > 100 µM (inactive) | > 100 µM (inactive) | > 100 µM (inactive) | 21.7 µM (inactive) | > 100 µM (inactive) | – | 91 µM (inactive)
6 | C(CCCCc1nnc(N2CCCCC2)o1)CCCc1nnc(N2CCCCC2)o1 | > 100 µM (inactive) | > 100 µM (inactive) | > 100 µM (inactive) | > 100 µM (inactive) | > 100 µM (inactive) | > 100 µM (inactive) | > 100 µM (inactive) | > 100 µM (inactive) | > 100 µM (inactive) | > 100 µM (inactive) | – | > 100 µM (inactive) | > 100 µM (inactive) | > 100 µM (inactive) | > 100 µM (inactive) | > 100 µM (inactive) | > 100 µM (inactive) | > 100 µM (inactive) | – | > 100 µM (inactive)
7 | CCOC(=O)C(=CNC(=S)Nc1c(CC)cccc1CC)C(=O)OCC | > 100 µM (inactive) | > 100 µM (inactive) | > 100 µM (inactive) | > 100 µM (inactive) | > 100 µM (inactive) | > 100 µM (inactive) | > 100 µM (inactive) | > 100 µM (inactive) | > 100 µM (inactive) | > 100 µM (inactive) | 80.7 µM (inactive) | > 100 µM (inactive) | > 100 µM (inactive) | > 100 µM (inactive) | > 100 µM (inactive) | > 100 µM (inactive) | > 100 µM (inactive) | > 100 µM (inactive) | > 100 µM (inactive) | –
8 | CCN(CC)c1ccc(/N=N/c2ccc(-c3nc4ccc[n+](C)c4o3)cc2)cc1 | 12.9 µM (inactive) | 10.7 µM (inactive) | 2.31 µM (inactive) | 4.18 µM (inactive) | 12 µM (inactive) | 13.6 µM (inactive) | 11.3 µM (inactive) | 5.46 µM (inactive) | – | 2.97 µM (inactive) | – | – | 12.3 µM (inactive) | 12.9 µM (inactive) | 7.01 µM (inactive) | 10 µM (inactive) | 4.57 µM (inactive) | 3.54 µM (inactive) | 3.69 µM (inactive) | –
9 | CC1(C(=O)Nc2ccc3cc4ccccc4cc3c2)CC2(C)CC(C)(C1)C(O)NC2=O (configuration not stated) | > 100 µM (inactive) | > 100 µM (inactive) | 57.3 µM (inactive) | > 100 µM (inactive) | > 100 µM (inactive) | > 100 µM (inactive) | 92.5 µM (inactive) | > 100 µM (inactive) | – | > 100 µM (inactive) | – | – | 63 µM (inactive) | > 100 µM (inactive) | > 100 µM (inactive) | 70 µM (inactive) | > 100 µM (inactive) | > 100 µM (inactive) | 23.6 µM (inactive) | –
10 | CCN(CC)CC1CCCCN1CC(=O)N1c2ccccc2NC(=O)c2ccccc21 (configuration not stated) | > 100 µM (inactive) | > 100 µM (inactive) | > 100 µM (inactive) | > 100 µM (inactive) | > 100 µM (inactive) | > 100 µM (inactive) | > 100 µM (inactive) | > 100 µM (inactive) | > 100 µM (inactive) | > 100 µM (inactive) | > 100 µM (inactive) | > 100 µM (inactive) | > 100 µM (inactive) | > 100 µM (inactive) | > 100 µM (inactive) | > 100 µM (inactive) | > 100 µM (inactive) | > 100 µM (inactive) | > 100 µM (inactive) | –
11 | COc1ccc(/C=C2\CSC/C(=C\c3ccc(OC)c(OC)c3OC)C2=O)c(OC)c1OC | – | 15.6 µM (inactive) | 5.86 µM (inactive) | 17 µM (inactive) | 54.6 µM (inactive) | > 100 µM (inactive) | 28.8 µM (inactive) | 26.4 µM (inactive) | – | 28.3 µM (inactive) | – | 23.1 µM (inactive) | 31.6 µM (inactive) | 37.8 µM (inactive) | 42.3 µM (inactive) | 52.1 µM (inactive) | 39.8 µM (inactive) | > 100 µM (inactive) | 26.9 µM (inactive) | 35.5 µM (inactive)
12 | Cc1cc2c(cc1C)[n+]([O-])c(C(=O)CC(=O)C(=O)Nc1ccccc1C(C)C)c(C)[n+]2[O-] | > 100 µM (inactive) | > 100 µM (inactive) | > 100 µM (inactive) | > 100 µM (inactive) | > 100 µM (inactive) | > 100 µM (inactive) | > 100 µM (inactive) | > 100 µM (inactive) | – | > 100 µM (inactive) | – | – | 25.5 µM (inactive) | > 100 µM (inactive) | 1.08 µM (active) | > 100 µM (inactive) | > 100 µM (inactive) | > 100 µM (inactive) | > 100 µM (inactive) | –
13 | CC(C)(C)C(=O)C(Cc1ccccc1)C(=O)C(C)(C)C | > 100 µM (inactive) | 98.6 µM (inactive) | > 100 µM (inactive) | 52.6 µM (inactive) | > 100 µM (inactive) | > 100 µM (inactive) | 39.4 µM (inactive) | > 100 µM (inactive) | – | > 100 µM (inactive) | > 100 µM (inactive) | 51.6 µM (inactive) | > 100 µM (inactive) | > 100 µM (inactive) | > 100 µM (inactive) | 55 µM (inactive) | > 100 µM (inactive) | > 100 µM (inactive) | 51.3 µM (inactive) | –
14 | CC(CO)C1=CC(C#CCOCc2ccccc2)N(C(=O)Oc2ccccc2)c2ccccc21 (configuration not stated) | 18.7 µM (inactive) | 3.33 µM (inactive) | – | 14.8 µM (inactive) | 23.3 µM (inactive) | 10.3 µM (inactive) | 18.6 µM (inactive) | 41 µM (inactive) | 15.5 µM (inactive) | 21.4 µM (inactive) | 14.3 µM (inactive) | 8.89 µM (inactive) | 48.1 µM (inactive) | 28.2 µM (inactive) | 13.2 µM (inactive) | 9.35 µM (inactive) | 34.5 µM (inactive) | 64.1 µM (inactive) | 9.53 µM (inactive) | –
15 | CC(C)(CCCCC(C)(C)[N+](C)(C)C)[N+](C)(C)C | – | – | – | > 100 µM (inactive) | – | > 100 µM (inactive) | > 100 µM (inactive) | > 100 µM (inactive) | > 100 µM (inactive) | > 100 µM (inactive) | > 100 µM (inactive) | > 100 µM (inactive) | > 100 µM (inactive) | > 100 µM (inactive) | > 100 µM (inactive) | – | > 100 µM (inactive) | > 100 µM (inactive) | > 100 µM (inactive) | –
16 | COC(=O)NCCc1n[nH]c2c1C(=O)C=C(OC)C2=O | 24.5 µM (inactive) | 17.6 µM (inactive) | 15.5 µM (inactive) | 18.6 µM (inactive) | 54.2 µM (inactive) | 22.9 µM (inactive) | 42.6 µM (inactive) | 19.4 µM (inactive) | 14.6 µM (inactive) | 15.5 µM (inactive) | 34.3 µM (inactive) | > 100 µM (inactive) | 43.9 µM (inactive) | 19.9 µM (inactive) | 15 µM (inactive) | 17.9 µM (inactive) | 16.7 µM (inactive) | 20.7 µM (inactive) | 15 µM (inactive) | –
